Measurements published in US11926626B2, “Heterocyclic GLP-1 agonists” (Gasherbrum Bio, Inc., priority 2020, dated 2024).
pEC50: −log10 of the molar value.

Biological target: GLP-1 Receptor (Homo sapiens, UniProt P43220)
Experiment: GLP-1R agonist cAMP stimulation assay (HEK293/GLP1R/CRE-Luc cells, HTRF cAMP)
Assay type: cell-based
Settings: 30 min, 37° C.
Protocol: Activation of GLP-1 receptor is known to stimulate cyclic AMP (cAMP) production in cells which indicates primary coupling to the Gαs subunit of the G protein heterotrimeric complex.
To optimize functional activity directed toward Gαs coupling, a HEK293/CRE-Luc cell line developed by HDB stably expressing the GLP-1 Receptor was used. […] 1×10^5 cells/mL HEK293/GLP1R/CRE-LUC(HD Biosciences) cell suspensions prepared with assay buffer[DPBS containing 0.5 mM IBMX (Sigma, Cat #I5879) and 0.1% BSA (GENVIEW, Cat #FA016-100g)], 10 uL cell suspensions were added to each well of previous generated assay plate which already contains 50 nl compound at 200×concentration using ThermoFisher Multidrop Combi (1000 cells/well). Seal the plate and incubate at 37° C. with 5% CO2 for 30 min.
After incubation the cAMP assay signal was generated using cAMP dynamic 2 Kit (Cisbio). 5 μL cAMP-d2 working solution was added to each well, followed with 5 μL Anti-cAMP antibody-cryptate working solution added to each well using ThermoFisher Multidrop Combi. Incubate at room temperature for 1 hour protected from light.

GLP-1 Receptor, sequence (P43220 24-463): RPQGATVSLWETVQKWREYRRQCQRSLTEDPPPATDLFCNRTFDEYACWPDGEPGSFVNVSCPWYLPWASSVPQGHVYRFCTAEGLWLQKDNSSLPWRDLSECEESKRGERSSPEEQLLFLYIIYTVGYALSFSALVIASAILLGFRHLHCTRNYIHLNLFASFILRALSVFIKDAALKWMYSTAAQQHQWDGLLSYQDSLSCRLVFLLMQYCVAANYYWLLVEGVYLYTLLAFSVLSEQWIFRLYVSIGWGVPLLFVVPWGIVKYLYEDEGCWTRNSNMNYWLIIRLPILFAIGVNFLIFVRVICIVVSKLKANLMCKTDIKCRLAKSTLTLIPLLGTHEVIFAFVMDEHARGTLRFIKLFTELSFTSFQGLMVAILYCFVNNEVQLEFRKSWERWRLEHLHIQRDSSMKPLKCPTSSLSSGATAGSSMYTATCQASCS

Compared with O=C(O)c1ccc2nc(CN3CCC(Oc4cccc(Cc5ccc(Cl)s5)n4)CC3)n(C[C@@H]3CCO3)c2n1 [Compound 147a, 2-{[4-({6-[(5-chlorothiophen-2-yl)methyl]pyridin-2-yl}oxy)piperidin-1-yl]methyl}-3-{[(2S)-oxetan-2-yl]methyl}-3H-imidazo[4,5-b]pyridine-5-carboxylic acid], O=C(O)c1ccc2nc(CN3CCC(C(F)(F)c4cccc(Cc5ccc(Cl)cc5F)n4)CC3)n(C[C@@H]3CCO3)c2n1 [Compound 173a, 2-{[4-({6-[(4-chloro-2-fluorophenyl)methyl]pyridin-2-yl}difluoromethyl)piperidin-1-yl]methyl}-3-{[(2S)-oxetan-2-yl]methyl}-3H-imidazo[4,5-b]pyridine-5-carboxylic acid] is lower in “GLP1R cAMP Stimulation DR: pEC50” value: 9.7 for the first, 8.4 for the second.

Same assay, conditions: 30 min, 37° C.; read-out: GLP1R cAMP Stimulation DR: EC50

Work on O=C(O)c1ccc2nc(CN3CCC(Oc4cccc(Cc5ccc(Cl)s5)n4)CC3)n(C[C@@H]3CCO3)c2n1 [Compound 147a, 2-{[4-({6-[(5-chlorothiophen-2-yl)methyl]pyridin-2-yl}oxy)piperidin-1-yl]methyl}-3-{[(2S)-oxetan-2-yl]methyl}-3H-imidazo[4,5-b]pyridine-5-carboxylic acid] yielded a pEC50 of 9.70.

Same assay, conditions: HEK293/CRE-Luc cells stably expressing GLP-1 Receptor; 30 min, 37° C.

Compared with O=C(O)c1ccc2nc(C[C@H]3CC[C@H](Oc4ccnc(Cc5ccc(Cl)cc5)n4)CC3)n(C[C@@H]3CCO3)c2n1 [Compound 177a, 3-{[(2S)-oxetan-2-yl]methyl}-2-{[trans-4-({2-[(4-chlorophenyl)methyl]pyrimidin-4-yl}oxy)cyclohexyl]methyl}-3H-imidazo[4,5-b]pyridine-5-carboxylic acid], N#Cc1ccc(Cc2nccc(O[C@H]3CC[C@H](Cc4nc5ccc(C(=O)O)nc5n4C[C@@H]4CCO4)CC3)n2)cc1 [Compound 182a, 3-{[(2S)-oxetan-2-yl]methyl}-2-{[trans-4-({2-[(4-cyanophenyl)methyl]pyrimidin-4-yl}oxy)cyclohexyl]methyl}-3H-imidazo[4,5-b]pyridine-5-carboxylic acid] is lower in “GLP1R cAMP Stimulation DR: pEC50” value: 10.4 for the first, 10.2 for the second.

Compared with COCCn1c(C[C@H]2CC[C@H](Oc3ccnc(Cc4ccc(Cl)cc4)n3)CC2)nc2ccc(C(=O)O)nc21 [Compound 179a, 3-(2-methoxyethyl)-2-{[trans-4-({2-[(4-chlorophenyl)methyl]pyrimidin-4-yl}oxy)cyclohexyl]methyl}-3H-imidazo[4,5-b]pyridine-5-carboxylic acid], O=C(O)c1ccc2nc(Cc3ccc(Oc4nc(Cc5ccc(Cl)cc5)ncc4F)cc3F)n(C[C@@H]3CCO3)c2n1 [Compound 190a, 2-{[4-({2-[(4-chlorophenyl)methyl]-5-fluoropyrimidin-4-yl}oxy)-2-fluorophenyl]methyl}-3-{[(2S)-oxetan-2-yl]methyl}-3H-imidazo[4,5-b]pyridine-5-carboxylic acid] is higher in “GLP1R cAMP Stimulation DR: pEC50” value: 8.6 for the first, 9.4 for the second.

First: O=C(O)c1ccc2nc(Cc3ccc(Oc4nc(Cc5ccc(Cl)cc5)ncc4F)cc3F)n(C[C@@H]3CCO3)c2c1 [Compound 191a, 2-{[4-({2-[(4-chlorophenyl)methyl]-5-fluoropyrimidin-4-yl}oxy)-2-fluorophenyl]methyl}-1-{[(2S)-oxetan-2-yl]methyl}-1H-1,3-benzodiazole-6-carboxylic acid]
Second: O=C(O)c1ccc2nc(CN3CCC(Oc4ccnc(Cc5ccc(Cl)cc5F)n4)CC3)n(C[C@@H]3CCO3)c2c1 [Compound 160a, 2-{[4-({2-[(4-chloro-2-fluorophenyl)methyl]pyrimidin-4-yl}oxy)piperidin-1-yl]methyl}-1-{[(2S)-oxetan-2-yl]methyl}-1H-1,3-benzodiazole-6-carboxylic acid]
The “GLP1R cAMP Stimulation DR: pEC50” value of the first is lower: 9.5 for the first, 9.9 for the second.

With N#Cc1ccc(Cc2cccc(OC3CCN(Cc4nc5ccc(C(=O)O)nc5n4C[C@@H]4CCO4)CC3)n2)c(F)c1 [Compound 136a, 2-{[4-({6-[(4-cyano-2-fluorophenyl)methyl]pyridin-2-yl}oxy)piperidin-1-yl]methyl}-3-{[(2S)-oxetan-2-yl]methyl}-3H-imidazo[4,5-b]pyridine-5-carboxylic acid] the “GLP1R cAMP Stimulation DR: pEC50” value was 9.4.
